From patent publication US11000491B2, “Amino-aryl-benzamide compounds and methods of use thereof” (HEPANOVA, INC., priority 2017, dated 2021)
“Also recorded” adds a separate entry of the source.

Tests used:
[1] = system: high fat diet-induced NAFLD/NASH mice; experiment: High fat diet-induced NAFLD/NASH mice; assay type: in vivo, C57BL/6 mice
Method: FIG. 11. Study design of in vivo HPN-01 effects on high fat diet-induced NAFLD/NASH mice.
Eight-week old C57BL/6 mice were divided into a test group and a control group. The control group mice were fed with normal chow diet (NCD) for 24 weeks. The test group was further divided into a preventing group and a treatment group. In the preventing group, mice were fed with high-fat diet (HFD) and simultaneously treated with 25 mg/kg of HPN-01 or vehicle daily for 16 weeks, after which time the mice were euthanized and evaluated for NAFLD/NASH development. In the treatment group, mice were fed with HFD for 12 weeks to stimulate the development of NAFLD/NASH, and then treated with 25 mg/kg of HPN-01 or vehicle daily for additional 12 weeks. The mice were then euthanized and evaluated for the presence of NAFLD/NASH. This study design is illustrated in FIG. 11.
To determine the effect of HPN-01 on various fat-related molecules in the liver of mice from the study in Example 8, liver tissues were isolated and prepared and the levels of hepatic triglyceride and glycogen were measured.
The livers of mice from the study of Example 8 were also analysed for their levels of cholesterol, SREBP-1, and fatty acid synthesis. […] Likewise, SREBP-1 expression in HFD-fed mice with HPN-01 treatment was 0.52±0.06, a reduction of about 48% when compared with HFD-fed mice receiving only vehicle (FIG. 15B).
Plasma cholesterol and triglyceride levels were determined in blood taken from mice in the study described in Example 8.
Liver tissues from mice in the study of Example 8 were analysed for the expression level of inflammatory cytokines.
Liver tissues from mice in the study of Example 8 were analysed for the expression levels of hepatic molecules involved in the formation of fibrotic scarring.
Liver tissues were then analysed to determine the levels of various pro-fibrotic cytokines. […] The expression level of TIMP2, a fibrosis suppressor, was increased in the presence of HPN-01.

[2] = system: nSTZ+HFD NASH mice; experiment: Streptozotocin (STZ) and high fat diet-induced (nSTZ+HFD) NASH mice; assay type: in vivo, C57/BL6J mice; conditions: 5 or 15 mpk orally BID, 3 weeks
Method: FIG. 27. Design of study to test in vivo HPN-01 efficacy on streptozotocin (STZ) and high fat diet-induced (nSTZ+HFD) NASH mice.
The effect of HPN-01 on various physical and biochemical parameters in mice induced to develop NASH was tested. Briefly, newborn C57/BL6J mice were divided into 5 groups, with 8 animals per group. […] The remaining four groups were injected on days 2, 3 and 4, with Vehicle (Vehicle consists of 40% PEG400:10% Cremophor EL:50% water) containing 90 μg of streptozotocin (STZ), and fed a high fat diet (HFD) from week 4 through week 9 to establish NASH hallmarks in the liver. One of the groups (Vehicle group) that received STZ was not given any further drug treatment. The remaining three groups received either orally administered Telmisartan or orally administered HPN-01 starting at week 6 and continuing for 3 weeks. Telmisartan was orally administered once per day (QD) at a dosage of 10 mpk (mg/kg weight); this group served as a positive control. HPN-01 was administrated orally twice a day (BID) with either a lower (5 mpk) or a higher (15 mpk) dose. For each group, body weight and food intake were recorded daily.
At the end of the study, animals were fasted overnight, and fasted blood glucose levels measured and compared with a fasted glucose level obtained on Day 1 of the study.
Mice were then euthanized, and whole blood drawn by cardiac puncture. Sera were prepared and stored at −80° C. for alanine aminotransferase (ALT), aspartate aminotransferase (AST), triglyceride (TG) and total cholesterol (TC) detection. Livers were isolated and liver weights were recorded. Liver tissues were stored at −80° C. for TG, TC detection, measurement of various inflammatory and fibrotic markers, and pathological studies.
Liver tissues from various groups from the study shown in FIG. 27 were observed under a microscope following Hematoxylin and Eosin (H&E) stain and Oil-red-O staining, and an NAFLD activity score determined. Additional NAFLD/NASH pathology scores were also determined, including a hepatic steatosis score (FIG. 35B), a ballooning score (FIG. 35C) and an inflammation score (FIG. 35D).

[3] = HFD-fed mice with HPN-01 treatment
[4] = HFD-fed mice, 25 mg/kg daily, 25 mg/kg
[5] = HFD-fed mice, preventing group (25 mg/kg daily, 16 weeks)
[6] = HFD-fed mice, treatment group (HFD 12 weeks, then 25 mg/kg daily 12 weeks)

## NC(=O)c1cc(-c2ccc(Cl)cc2)cc(-c2ccc(S(N)(=O)=O)cc2)c1N [HPN-01, 2-amino-3-(p-sulfonamidophenyl)-5-(p-chlorophenyl) benzamide]
[1]; HFD-fed mice receiving HPN-01
  plasma cholesterol level: 43.0 ± 15.5 mg/dL
  plasma triglyceride level: 31.2 ± 4.5 mg/dL
[1]; [3]
  hepatic SREBP-1 expression (relative): 0.52±0.06
  hepatic cholesterol level: 3.9±1.1 mg per g tissue
  hepatic fatty acid synthesis: 13.2±2.8 DPMs/mg
[1]; HFD-fed mice, 25 mg/kg daily
  size and color of liver: very similar to the control mice
[1]; HFD-fed mice, 25 mg/kg daily, preventing and treatment groups
  LD deposition and inflammatory infiltration in liver sections (H&E, Oil-red-O): substantially diminished
[1]; [4]
  body weight increase / HFD-triggered obesity: significantly remitted; also recorded: reversed HFD-triggered obesity
  fat deposition / visceral fat accumulation: significantly remitted; also recorded: significantly alleviated visceral fat accumulation
[1]; [5]
  liver glycogen level: 8.4 ± 1.6 µg/mg
  liver triglyceride level: 67.2 ± 28.3 mg/g
[1]; [6]
  liver glycogen level: 13.3 ± 3.5 µg/mg
  liver triglyceride level: 75.5 ± 19.8 mg/g
[1]; HFD-fed mice, vs vehicle only
  decrease of hepatic cholesterol vs vehicle: about 1.92 fold
  decrease of hepatic fatty acid synthesis vs vehicle: about 3.18 fold
  decrease of plasma cholesterol vs vehicle: 2.75 fold
  decrease of plasma triglyceride vs vehicle: 1.87 fold
  reduction of hepatic SREBP-1 expression vs vehicle: about 48%
[1]; liver tissue mRNA, HFD-fed mice
  HFD induction of ITGA2, LOX, TIMP1, IGFBP1, IGFBP2, IGFBP3, IGFBP5, IGFBP6 and FGF-21 in liver: significantly suppressed
[1]; liver tissue, HFD-fed mice
  HFD induction of hepatic expression of ICAM1(CD54), IL-1B, IL-8, MCP-1, THF-α and LIF: substantially abrogated; also recorded: suppressed
  expression level of TIMP2 (fibrosis suppressor) in liver: increased
[2]
  body weight: no effect
  daily food intake: no effect
[2]; Day-22 vs Day-1
  fasted blood glucose levels: no effect
[2]; dose-dependent
  elevation of hepatic TC: significantly reversed
  elevation of hepatic TG: significantly reversed
  elevation of serum ALT: significantly reversed
  elevation of serum AST: significantly reversed
  increase of serum total cholesterol (TC): significantly abated
  increase of serum triglyceride (TG): significantly abated
  liver COL1A1 level: reduced
  liver MCP-1 mRNA: significantly suppressed
  liver TGF-β1 level: reduced
  liver TIMP-1 level: reduced
  liver TNF-α mRNA: significantly suppressed
